Where two headings read alike, the source gives them in different places.
How the values were obtained:
STAT3 = STAT3 (Homo sapiens, UniProt P40763); assay: Estimated DC50 for STAT3 degradation in MOLM-16 cells (immunoblotting); format: cell-based; parameters: In vitro cultured cells or xenograft tumors were lysed; endogenous in cells; host or cells: MOLM-16
Description: (§1) FIG. 62 is a series of four images showing the fluorescent immunoblotting analysis of STAT1 and STAT3 protein in Molm-16 cells after treatment for 4 h with Cpd. Nos. 331, 296, 361, 362, 363, 364, 365, 366, and 367 at the concentrations indicated.
(§2) In vitro cultured cells or xenograft tumors were lysed 1× Cell Lysis Buffer (Cell Signaling Technology, #9803), resolved by SDS-PAGE NuPAGE gel (Thermo Fisher Scientific), and transferred to a PVDF membrane (Bio Rad). For chemiluminescence immunoblotting, membranes were blocked for 1 h using 5% Blotting-Grade Blocker (#1706404, Bio Rad) in 1× Tris-buffered saline with Tween 20 (TBST, Pierce). Antibodies used were: rabbit mAbs for STAT3 (Cell Signaling Technology, #4368, #12640) and p-STAT3 (Y705) (Cell Signaling Technology, #9245, #52075). HRP conjugated goat anti-rabbit IgG (H+L) (#A27036) secondary antibodies was from Thermo Fisher Scientific. GAPDH (Santa Cruz Technology, sc-47724HRP) and actin (Santa Cruz Technology, sc-8432HRP, sc-47778HRP) were loading controls. For fluorescent immunoblotting, membranes were blocked using Odyssey TBS Blocker Buffer (LI-COR). IRDye 680RD and 800CW Dye-labeled secondary antibodies (LI-COR) were used. The washed membranes were scanned using Odyssey CLx imager (LI-COR). The intensity of Western blot signaling was quantitated using the Odyssey software.
(§3) The estimated DC50 in MOLM-16 cells of representative Compounds of the Disclosure against STAT3 and STAT1 is provide in Table 5.

STAT1 = biological target: T1, STAT1 (Homo sapiens, UniProt P42224); assay: Estimated DC50 for STAT1 degradation in MOLM-16 cells (immunoblotting); format: cell-based
T1 construct: In vitro cultured cells or xenograft tumors were lysed; endogenous in cells; host or cells: MOLM-16
T1 sequence (P42224 1-750): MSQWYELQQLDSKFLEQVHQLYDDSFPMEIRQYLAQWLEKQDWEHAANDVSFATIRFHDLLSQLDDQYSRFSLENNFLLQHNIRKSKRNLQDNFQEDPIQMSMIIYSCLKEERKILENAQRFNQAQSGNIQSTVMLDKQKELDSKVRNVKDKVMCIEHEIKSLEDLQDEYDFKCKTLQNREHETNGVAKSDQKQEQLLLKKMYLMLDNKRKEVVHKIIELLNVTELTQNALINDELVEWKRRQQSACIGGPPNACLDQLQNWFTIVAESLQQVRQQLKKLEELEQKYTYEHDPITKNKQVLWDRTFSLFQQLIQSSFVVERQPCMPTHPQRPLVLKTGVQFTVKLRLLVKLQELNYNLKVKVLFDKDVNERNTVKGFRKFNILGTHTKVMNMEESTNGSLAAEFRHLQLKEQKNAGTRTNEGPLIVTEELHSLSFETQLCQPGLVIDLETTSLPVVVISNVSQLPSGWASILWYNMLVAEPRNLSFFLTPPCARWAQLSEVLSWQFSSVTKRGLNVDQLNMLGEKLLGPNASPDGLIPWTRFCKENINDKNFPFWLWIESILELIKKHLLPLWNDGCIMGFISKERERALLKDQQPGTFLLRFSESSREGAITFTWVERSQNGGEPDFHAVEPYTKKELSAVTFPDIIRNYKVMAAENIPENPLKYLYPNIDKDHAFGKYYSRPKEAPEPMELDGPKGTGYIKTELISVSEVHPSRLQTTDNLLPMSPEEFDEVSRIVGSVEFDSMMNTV
Description: as §1, §2, §3

[1] = MOLM-16, 4 h; read-out: Estimated DC50 STAT3
[2] = MOLM-16, 4 h; read-out: Estimated DC50 STAT1

Sequence of STAT3 (P40763 whole entry): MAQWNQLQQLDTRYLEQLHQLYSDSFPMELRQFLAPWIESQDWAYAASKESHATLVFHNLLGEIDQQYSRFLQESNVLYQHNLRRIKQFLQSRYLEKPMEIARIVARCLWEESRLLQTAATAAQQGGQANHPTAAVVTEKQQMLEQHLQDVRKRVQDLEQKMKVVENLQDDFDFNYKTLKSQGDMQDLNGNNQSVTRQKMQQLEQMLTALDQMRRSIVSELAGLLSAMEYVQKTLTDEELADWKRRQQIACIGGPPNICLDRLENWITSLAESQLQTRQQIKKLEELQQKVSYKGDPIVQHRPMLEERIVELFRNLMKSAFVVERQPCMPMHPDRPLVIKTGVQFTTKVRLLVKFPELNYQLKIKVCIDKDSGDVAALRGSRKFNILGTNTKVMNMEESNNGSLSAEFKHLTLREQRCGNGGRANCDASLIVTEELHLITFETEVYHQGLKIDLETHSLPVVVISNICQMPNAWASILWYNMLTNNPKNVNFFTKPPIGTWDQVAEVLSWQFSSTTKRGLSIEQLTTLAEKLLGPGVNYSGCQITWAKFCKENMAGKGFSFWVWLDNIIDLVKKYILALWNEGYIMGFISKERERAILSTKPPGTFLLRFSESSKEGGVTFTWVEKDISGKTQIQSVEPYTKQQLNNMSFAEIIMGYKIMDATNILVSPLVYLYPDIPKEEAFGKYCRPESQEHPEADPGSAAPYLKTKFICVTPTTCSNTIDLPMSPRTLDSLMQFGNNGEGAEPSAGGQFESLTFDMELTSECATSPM

Work on `NC(=O)CC[C@H](NC(=O)[C@@H]1CC[C@@H]2CCN(C(=O)CCCCCC#Cc3cccc4c3CN(C3CCC(=O)NC3=O)C4=O)C[C@H](NC(=O)c3cc4cc(C(F)(F)P(=O)(O)O)ccc4s3)C(=O)N21)C(=O)NC(Cc1ccccc1)Cc1ccccc1` (stereo partly drawn) [Cpd. No. 349, ((2-(((5S,8S,10aR)-8-(((S)-5-amino-1-((1,3-diphenylpropan-2-yl)amino)-1,5-dioxopentan-2-yl)carbamoyl)-3-(8-(2-(2,6-dioxopiperidin-3-yl)-1-oxoisoindolin-4-yl)oct-7-ynoyl)-6-oxodecahydropyrrolo[1,2-a][1,5]diazocin-5-yl)carbamoyl)benzo[b]thiophen-5-yl)difluoromethyl) phosphonic acid] yielded a DC50 (STAT3; [1]) of 200 nM.

With `CCN1CC[C@H]2CC[C@@H](C(=O)N[C@@H](CCC(N)=O)C(=O)N[C@@H](Cc3ccc(S(=O)(=O)c4ccccc4)cc3)C(=O)N3CCC(CCC#Cc4cccc5c4CN(C4CCC(=O)NC4=O)C5=O)CC3)N2C(=O)[C@@H](NC(=O)c2cc3cc(C(F)(F)P(=O)(O)O)ccc3s2)C1` (some centres unmarked) [Cpd. No. 352] the DC50 (STAT1; read-out: Estimated DC50 STAT1; MOLM-16, 4 h) was 250 nM and the DC50 (STAT3; read-out: Estimated DC50 STAT3; MOLM-16, 4 h) was < 250 nM.

`CCN1CC[C@H]2CC[C@@H](C(=O)N[C@@H](CCC(N)=O)C(=O)N[C@@H](Cc3ccc(S(=O)(=O)C4CC4)cc3)C(=O)N3CCC(CCC#Cc4cccc5c4CN(C4CCC(=O)NC4=O)C5=O)CC3)N2C(=O)[C@@H](NC(=O)c2cc3cc(C(F)(F)P(=O)(O)O)ccc3s2)C1` (stereo partly drawn) [Cpd. No. 353, ((2-(((5S,8S,10aR)-8-(((2S)-5-amino-1-(((2S)-3-(4-(cyclopropylsulfonyl)phenyl)-1-(4-(4-(2-(2,6-dioxopiperidin-3-yl)-1-oxoisoindolin-4-yl)but-3-yn-1-yl)piperidin-1-yl)-1-oxopropan-2-yl)amino)-1,5-dioxopentan-2-yl)carbamoyl)-3-ethyl-6-oxodecahydropyrrolo[1,2-a][1,5]diazocin-5-yl)carbamoyl)benzo[b]thiophen-5-yl)difluoromethyl)phosphonic Acid] was tested, and the DC50 (STAT1; [2]) was 500 nM and the DC50 (STAT3; [1]) was < 250 nM.

In the case of `CCN1CC[C@H]2CC[C@@H](C(=O)N[C@@H](CCC(N)=O)C(=O)N[C@@H](Cc3ccc(NS(=O)(=O)c4ccc(C)cc4)cc3)C(=O)N3CCC(CCC#Cc4cccc5c4CN(C4CCC(=O)NC4=O)C5=O)CC3)N2C(=O)[C@@H](NC(=O)c2cc3cc(C(F)(F)P(=O)(O)O)ccc3s2)C1` (stereo partly drawn) [Cpd. No. 354, ((2-(((5S,8S,10aR)-8-(((2S)-5-amino-1-(((2S)-1-(4-(4-(2-(2,6-dioxopiperidin-3-yl)-1-oxoisoindolin-4-yl)but-3-yn-1-yl)piperidin-1-yl)-3-(4-((4-methylphenyl)sulfonamido)phenyl)-1-oxopropan-2-yl)amino)-1,5-dioxopentan-2-yl)carbamoyl)-3-ethyl-6-oxodecahydropyrrolo[1,2-a][1,5]diazocin-5-yl)carbamoyl)benzo[b]thiophen-5-yl)difluoromethyl)phosphonic Acid], the DC50 (STAT1; [2]) is reported as 250 nM and the DC50 (STAT3; [1]) is reported as < 250 nM.

In the case of `CCN1CC[C@H]2CC[C@@H](C(=O)N[C@@H](CCC(N)=O)C(=O)N[C@@H](Cc3ccc(NS(=O)(=O)c4ccc(C5CCCCC5)cc4)cc3)C(=O)N3CCC(CCC#Cc4cccc5c4CN(C4CCC(=O)NC4=O)C5=O)CC3)N2C(=O)[C@@H](NC(=O)c2cc3cc(C(F)(F)P(=O)(O)O)ccc3s2)C1` (stereo partly drawn) [Cpd. No. 357, ((2-(((5S,8S,10aR)-8-(((2S)-5-amino-1-(((2S)-3-(4-((4-cyclohexylphenyl)sulfonamido)phenyl)-1-(4-(4-(2-(2,6-dioxopiperidin-3-yl)-1-oxoisoindolin-4-yl)but-3-yn-1-yl)piperidin-1-yl)-1-oxopropan-2-yl)amino)-1,5-dioxopentan-2-yl)carbamoyl)-3-ethyl-6-oxodecahydropyrrolo[1,2-a][1,5]diazocin-5-yl)carbamoyl)benzo[b]thiophen-5-yl)difluoromethyl) phosphonic acid], the DC50 (STAT1; [2]) is reported as > 1000 nM and the DC50 (STAT3; [1]) is reported as 500 nM.

For `CCN1CC[C@H]2CC[C@@H](C(=O)N[C@@H](CCC(N)=O)C(=O)N[C@@H](Cc3ccc(C(=O)NC4CCOCC4)cc3)C(=O)N3CCC(CCC#Cc4cccc5c4CN(C4CCC(=O)NC4=O)C5=O)CC3)N2C(=O)[C@@H](NC(=O)c2cc3cc(C(F)(F)P(=O)(O)O)ccc3s2)C1` (stereo partly drawn) [Cpd. No. 359, ((2-(((5S,8S,10aR)-8-(((2S)-5-amino-1-(((2S)-1-(4-(4-(2-(2,6-dioxopiperidin-3-yl)-1-oxoisoindolin-4-yl)but-3-yn-1-yl)piperidin-1-yl)-1-oxo-3-(4-((tetrahydro-2H-pyran-4-yl)carbamoyl)phenyl)propan-2-yl)amino)-1,5-dioxopentan-2-yl)carbamoyl)-3-ethyl-6-oxodecahydropyrrolo[1,2-a][1,5]diazocin-5-yl)carbamoyl)benzo[b]thiophen-5-yl)difluoromethyl)phosphonic Acid], the DC50 (STAT1; [2]) was > 1000 nM and the DC50 (STAT3; [1]) was 1000 nM.

For `CCN1CC[C@H]2CC[C@@H](C(=O)N[C@@H](CCC(N)=O)C(=O)N[C@@H](Cc3ccc(C(=O)NCC4CCN(C)CC4)cc3)C(=O)N3CCC(CCC#Cc4cccc5c4CN(C4CCC(=O)NC4=O)C5=O)CC3)N2C(=O)[C@@H](NC(=O)c2cc3cc(C(F)(F)P(=O)(O)O)ccc3s2)C1` (stereo partly drawn) [Cpd. No. 360, ((2-(((5S,8S,10aR)-8-(((2S)-5-amino-1-(((2S)-1-(4-(4-(2-(2,6-dioxopiperidin-3-yl)-1-oxoisoindolin-4-yl)but-3-yn-1-yl)piperidin-1-yl)-3-(4-(((1-methylpiperidin-4-yl)methyl)carbamoyl)phenyl)-1-oxopropan-2-yl)amino)-1,5-dioxopentan-2-yl)carbamoyl)-3-ethyl-6-oxodecahydropyrrolo [1,2-a][1,5]diazocin-5-yl)carbamoyl)benzo [b]thiophen-5-yl)difluoromethyl) phosphonic acid], the DC50 (STAT1; [2]) was > 1000 nM and the DC50 (STAT3; [1]) was > 1000 nM.

For `COC(=O)N1CC[C@H]2CC[C@@H](C(=O)N[C@@H](CCC(N)=O)C(=O)N[C@@H](Cc3ccc(C(C)(C)C)cc3)C(=O)N3CCC(CCC#Cc4cccc5c4CN(C4CCC(=O)NC4=O)C5=O)CC3)N2C(=O)[C@@H](NC(=O)c2cc3cc(C(F)(F)P(=O)(O)O)ccc3s2)C1` (stereo partly drawn) [Cpd. No. 361, ((2-(((5S,8S,10aR)-8-(((2S)-5-amino-1-(((2S)-3-(4-(tert-butyl)phenyl)-1-(4-(4-(2-(2,6-dioxopiperidin-3-yl)-1-oxoisoindolin-4-yl)but-3-yn-1-yl)piperidin-1-yl)-1-oxopropan-2-yl)amino)-1,5-dioxopentan-2-yl)carbamoyl)-3-(methoxycarbonyl)-6-oxodecahydropyrrolo[1,2-a][1,5]diazocin-5-yl)carbamoyl)benzo[b]thiophen-5-yl)difluoromethyl) phosphonic acid], the DC50 (STAT1; [2]) was 250 nM and the DC50 (STAT3; [1]) was < 250 nM.

`CC(C)(C)c1ccc(C[C@H](NC(=O)[C@H](CCC(N)=O)NC(=O)[C@@H]2CC[C@@H]3CCN(CC(F)F)C[C@H](NC(=O)c4cc5cc(C(F)(F)P(=O)(O)O)ccc5s4)C(=O)N32)C(=O)N2CCC(CCC#Cc3cccc4c3CN(C3CCC(=O)NC3=O)C4=O)CC2)cc1` (stereo partly drawn) [Cpd. No. 362, ((2-(((5S,8S,10aR)-8-(((2S)-5-amino-1-(((2S)-3-(4-(tert-butyl)phenyl)-1-(4-(4-(2-(2,6-dioxopiperidin-3-yl)-1-oxoisoindolin-4-yl)but-3-yn-1-yl)piperidin-1-yl)-1-oxopropan-2-yl)amino)-1,5-dioxopentan-2-yl)carbamoyl)-3-(2,2-difluoroethyl)-6-oxodecahydropyrrolo[1,2-a][1,5]diazocin-5-yl)carbamoyl)benzo[b]thiophen-5-yl)difluoromethyl) phosphonic acid] was tested, and the DC50 (STAT1; [2]) was < 250 nM and the DC50 (STAT3; [1]) was < 250 nM.

Reference: US20230083015A1, “SMALL MOLECULE DEGRADERS OF STAT3” (THE REGENTS OF THE UNIVERSITY OF MICHIGAN, priority 2019, published 2023)
